Results on seven molecules are retold here after patent US9642831B2, “Substituted chromanes and method of use” (AbbVie S.á.r.l., priority 2014, dated 2017).

Each structure is given as a SMILES string.

Data set [1] relates to CYP3A4. Description: CYP3A4 induction in primary human hepatocytes (mRNA, RT-PCR). The settings on record: test compounds 10 μM, 48 hours, % of response of positive control (Rifampin 10 μM).
Description: Cryopreserved primary human hepatocytes were thawed and cultured overnight prior to treatment. […] Following the 48 hour treatment, hepatocytes were harvested for RNA isolation and reverse transcription, followed by CYP3A4 mRNA quantitation using RT-PCR (real time reverse transcript polymerase chain reaction).
Fold Induction=Fold of Treated/Fold of Vehicle Control % positive control=(Fold Induction of Treated−1)/(Fold Induction of Prototypical Inducer−1)
Data set [2] addresses T1, F508delCFTR (Homo sapiens, UniProt P13569, DEL508-508). Description: Cell Surface Expression-Horse Radish Peroxidase (CSE-HRP) assay. In kind it is cell-based. The arrangement: expressed in transfected cells; host or cells: CFBE41o- human lung derived epithelial cell line, doxycycline-inducible. The settings on record: CFBE4lo-F508delCFTR-HRP cells; for EC50: 18-24 hours at 33° C., 8-point curve, highest concentration 20 μM, luminescence readout; for Emax: maximum % activity at any tested concentration, normalized to on-plate positive control (3 μM Example 1). Put shortly: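 Following 18-24 h compound exposure at 33° C. Expression was doxycycline-induced beforehand. % activity versus DMSO and a 3 μM corrector control gave maximum activity and EC50 from a variable-Hill sigmoidal fit.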

Data set [3] deals with T1, F508delCFTR. As to the kind of experiment: Transepithelial Clamp Circuit (TECC-24) conductance assay on primary human bronchial epithelial cells (hBE-TECC). It is filed as cell-based. Also on record: cells isolated from CF patients with the homozygous mutation; endogenous in cells; host or cells: primary human bronchial epithelial (hBE) cells from F508del/F508del CF patients. Conditions: for EC50: primary hBE cells from F508del/F508delCFTR patients, corrector 18-24 hours at 37° C., equivalent short circuit current (Ieq), with control potentiator 1 μM; for Emax: relative to positive control (3 μM Example 1 coupled with control potentiator = 100%), primary hBE F508del/F508del cells, read-out: Maximum % activity (%). From the text: Transepithelial Clamp Circuit on Human Bronchial Epithelial Cells Conductance Assay:
A cell based assay using the primary human bronchial epithelial cells (hBE) was used as a secondary assay to test novel F508delCFTR correctors for their activity on primary hBE cells with F508del/F508del CFTR mutation. The assay used a TECC-24 (Transepithelial Clamp Circuit for 24 wells) instrument that measures the functionality of the mutated channel by measuring the equivalent short circuit current (Ieq) generated by the polarized epithelial cells. The instrument works by measuring the transepithelial potential difference (Vt) and transepithelial resistance (Rt) in an open circuit format, and the Ieq is calculated by using Ohms law (Ieq=Vt/Rt). The assay was run in a 24-well format and all 24-wells were measured at the same time point giving a higher throughput for this assay.
Primary human bronchial epithelial (hBE) cells from F508del/F508delCFTR patients were expanded from 1×10^6 to 250×10^6 cells (Neuberger T, Burton B, Clark H and VanGoor F; Cystic Fibrosis, Methods in Mole Biol 741; eds. Amaral M D and Kunzelmann K, 2011). For this purpose, cells isolated from CF patients with the homozygous mutation were seeded onto 24 well Corning (Cat #3378) filter plates that were coated with 3T3 conditioned media and grown at an air-liquid interface for 35 days using an Ultroser® G supplemented differentiation media. Apical surface mucus was removed 72 hours before the experiment using 3 mM dithiothreitol (DTT) in phosphate buffered saline (PBS). The apical surface was washed again 24 hours before the experiment using PBS. The cells were incubated with the desired dose response of the corrector compounds 18-24 hours at 37° C., 5% CO2. The corrector compounds are only added on the basolateral side of the epithelial cells.
On the day of measuring the corrector activity on the TECC, the cells were switched into a bicarbonate and serum free F-12 Coon's medium and allowed to equilibrate for 90 minutes in a CO2 free incubator. At the time of measurement, the apical and basolateral sides of the filter were bathed with the F-12 Coon's modification media (with 20 mM 4-(2-hydroxyethyl)-1-piperazineethanesulfonic acid (HEPES), pH 7.4 (using 1 M tris(hydroxymethyl)aminormethane (Tris)), and the measurements were made at 36.5° C. Transepithelial voltage (Vt) and transepithelial resistance (Rt) were measured using a 24 channel transepithelial current clamp (TECC-24). Current responses to the sequential addition of benzamil (apical 6 μM addition; for inhibiting epithelial ENaC channel), forskolin (apical and basolateral 10 μM addition; for activating the CFTR channel), control potentiator (N-(3-carbamoyl-5,5,7,7-tetramethyl-4,7-dihydro-5H-thieno[2,3-c]pyran-2-yl)-1H-pyrazole-5-carboxamide; apical and basolateral 1 μM addition; for potentiating the CFTR channel) and bumetanide (basolateral 20 μM addition; for inhibiting the Na:2Cl:K co-transporter, an indirect measure of inhibiting the Cl-secretion driven by CFTR channel) were measured.
All plates contained negative controls (dimethyl sulfoxide, DMSO) which coupled with the control potentiator (N-(3-carbamoyl-5,5,7,7-tetramethyl-4,7-dihydro-5H-thieno[2,3-c]pyran-2-yl)-1H-pyrazole-5-carboxamide) sets the null response and positive controls (3 μM of 3-[(2R,4R)-4-({[1-(2,2-difluoro-1,3-benzodioxol-5-yl)cyclopropyl]carbonyl}amino)-7-methoxy-3,4-dihydro-2H-chromen-2-yl]benzoic acid) coupled with the control potentiator sets the 100% response to measure the correction of the mutated CFTR channel. The maximum percent activity is reported relative to the positive control value.
The % activity measured at each of the 6 test concentrations of the test compound was normalized to the on-plate positive control using the following formula: % activity=[(test compound response−DMSO response)/(positive control response−DMSO response)]*100 […]

T1 sequence (P13569 with tags, fused parts or gaps DEL508-508): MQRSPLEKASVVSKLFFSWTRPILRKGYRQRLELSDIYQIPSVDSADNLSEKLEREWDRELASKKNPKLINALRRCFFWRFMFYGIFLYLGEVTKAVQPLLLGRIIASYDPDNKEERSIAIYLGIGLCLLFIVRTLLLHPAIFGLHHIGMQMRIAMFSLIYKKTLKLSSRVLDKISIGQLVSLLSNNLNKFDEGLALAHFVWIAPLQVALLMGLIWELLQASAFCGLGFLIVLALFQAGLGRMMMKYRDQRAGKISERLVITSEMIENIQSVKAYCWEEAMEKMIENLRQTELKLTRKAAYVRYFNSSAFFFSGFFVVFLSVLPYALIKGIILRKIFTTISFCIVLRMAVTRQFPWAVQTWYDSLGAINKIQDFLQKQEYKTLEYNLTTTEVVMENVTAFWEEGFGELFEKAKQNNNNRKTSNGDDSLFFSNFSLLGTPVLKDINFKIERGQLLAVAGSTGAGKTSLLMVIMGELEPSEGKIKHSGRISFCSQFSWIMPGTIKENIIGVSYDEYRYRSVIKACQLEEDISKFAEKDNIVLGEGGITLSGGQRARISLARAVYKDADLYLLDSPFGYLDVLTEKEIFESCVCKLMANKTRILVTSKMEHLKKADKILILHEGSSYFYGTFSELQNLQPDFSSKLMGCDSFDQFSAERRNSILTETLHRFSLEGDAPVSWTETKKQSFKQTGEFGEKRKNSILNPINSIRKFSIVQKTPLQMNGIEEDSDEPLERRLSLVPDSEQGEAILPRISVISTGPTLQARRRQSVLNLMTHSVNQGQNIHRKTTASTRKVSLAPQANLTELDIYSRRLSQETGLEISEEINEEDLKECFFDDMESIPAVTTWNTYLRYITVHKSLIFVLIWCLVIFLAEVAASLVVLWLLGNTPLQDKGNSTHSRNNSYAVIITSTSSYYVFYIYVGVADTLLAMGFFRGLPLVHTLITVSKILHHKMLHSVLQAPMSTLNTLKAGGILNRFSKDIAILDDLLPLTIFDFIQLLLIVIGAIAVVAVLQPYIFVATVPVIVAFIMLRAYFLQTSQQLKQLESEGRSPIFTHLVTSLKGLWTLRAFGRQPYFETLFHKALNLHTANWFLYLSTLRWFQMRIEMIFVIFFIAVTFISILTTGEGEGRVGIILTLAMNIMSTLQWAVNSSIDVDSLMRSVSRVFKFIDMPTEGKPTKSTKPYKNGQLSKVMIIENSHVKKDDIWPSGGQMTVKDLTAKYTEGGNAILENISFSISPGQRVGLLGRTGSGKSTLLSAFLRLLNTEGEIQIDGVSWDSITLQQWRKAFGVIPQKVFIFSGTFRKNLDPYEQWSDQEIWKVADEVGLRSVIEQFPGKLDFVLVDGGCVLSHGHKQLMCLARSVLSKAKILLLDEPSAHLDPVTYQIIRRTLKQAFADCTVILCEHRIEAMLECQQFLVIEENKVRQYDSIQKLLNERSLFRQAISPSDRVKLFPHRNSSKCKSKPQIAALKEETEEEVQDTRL

A word on the EC50: it is the concentration needed to bring the measured effect to its halfway point. As for `COc1ccc2c(c1)[C@H](NC(=O)C1(c3ccc4c(c3)OC(F)(F)O4)CC1)C[C@H](c1cccc(C(=O)O)c1)O2` [Example 19, 3-[(2R,4R)-4-({[1-(2,2-difluoro-1,3-benzodioxol-5-yl)cyclopropyl]carbonyl}amino)-6-methoxy-3,4-dihydro-2H-chromen-2-yl]benzoic acid], the “CYP3A4 Hepatocytes mRNA % of positive control” value (shortened to “CYP3A4 Hepatocytes mRNA %”) in data set [1] came out at 9.38%. In addition, the half-maximal effective concentration (EC50) in data set [2] was found to be 630 nM; in data set [3], 210 nM. In addition, the values for the Emax in data set [2] and in data set [3] were 103% and 111%, respectively.

For the molecule `O=C(O)c1ccc([C@H]2C[C@@H](NC(=O)C3(c4ccc5c(c4)OC(F)(F)O5)CC3)c3ccc(OC(F)F)cc3O2)cc1` [Example 122, 4-[(2R,4R)-4-({[1-(2,2-difluoro-1,3-benzodioxol-5-yl)cyclopropyl]carbonyl}amino)-7-(difluoromethoxy)-3,4-dihydro-2H-chromen-2-yl]benzoic acid], the “CYP3A4 Hepatocytes mRNA %” value in data set [1] turned out to be 10.6%. In data set [2], this molecule displayed a 50% effective concentration (EC50) of 26 nM and an Emax of 122%. Also, in data set [3], the concentration giving a half-maximal response (EC50) amounted to 4 nM and the Emax came to 87%.

As for `O=C(O)c1cccc([C@H]2C[C@@H](NC(=O)C3(c4ccc5c(c4)OC(F)(F)O5)CC3)c3ccc(C(F)(F)F)cc3O2)c1` [Example 108, 3-[(2R,4R)-4-({[1-(2,2-difluoro-1,3-benzodioxol-5-yl)cyclopropyl]carbonyl}amino)-7-(trifluoromethyl)-3,4-dihydro-2H-chromen-2-yl]benzoic acid], the “CYP3A4 Hepatocytes mRNA %” value in data set [1] is 39.6%. For the same molecule, in data set [2], the EC50 worked out at 340 nM and the Emax was found to be 115%. Moreover, in data set [3], the concentration for a half-maximal effect (EC50) was determined as 86 nM and the Emax was found to be 96%.

`COc1ccc2c(c1)O[C@@H](c1ccc(C(=O)O)cc1)C[C@H]2NC(=O)C1(c2ccc3c(c2)OC(F)(F)O3)CC1` [Example 111, 4-[(2R,4R)-4-({[1-(2,2-difluoro-1,3-benzodioxol-5-yl)cyclopropyl]carbonyl}amino)-7-methoxy-3,4-dihydro-2H-chromen-2-yl]benzoic acid]: the “CYP3A4 Hepatocytes mRNA %” value in data set [1] was −0.105%. For the same molecule, the concentration for a half-maximal effect (EC50) was 44 nM in data set [2] and 5 nM in data set [3]. Besides, the Emax was 113% in data set [2] and 90% in data set [3].

`COc1ccc2c(n1)O[C@@H](c1cccc(C(=O)O)c1)C[C@H]2NC(=O)C1(c2ccc3c(c2)OC(F)(F)O3)CC1` (racemic) [Example 28, rac-3-[(2R,4R)-4-({[1-(2,2-difluoro-1,3-benzodioxol-5-yl)cyclopropyl]carbonyl}amino)-7-methoxy-3,4-dihydro-2H-pyrano[2,3-b]pyridin-2-yl]benzoic acid]: the “CYP3A4 Hepatocytes mRNA %” value in data set [1] stood at 9.41%. For the same molecule, in data set [2], it took 3240 nM to reach a half-maximal effect (EC50) and the Emax stood at 98%. Further, in data set [3], the half-maximal effective concentration (EC50) was found to be 3400 nM and the Emax is 51%.

As for `O=C(O)c1cccc([C@H]2C[C@@H](NC(=O)C3(c4ccc5c(c4)OC(F)(F)O5)CC3)c3ccccc3O2)c1` [Example 9, 3-[(2R,4R)-4-({[1-(2,2-difluoro-1,3-benzodioxol-5-yl)cyclopropyl]carbonyl}amino)-3,4-dihydro-2H-chromen-2-yl]benzoic acid], in data set [1], the “CYP3A4 Hepatocytes mRNA %” value stood at 16.1%. Moreover, in data set [2], the midpoint of the response, the EC50, lay at 420 nM and the Emax stood at 84%. Also, in data set [3], the EC50 is 160 nM and the Emax came out at 92%.

As to `COc1ccc2c(c1)O[C@@H](c1ccc(C(=O)O)cc1F)C[C@H]2NC(=O)C1(c2ccc3c(c2)OC(F)(F)O3)CC1` [Example 146, 4-[(2R,4R)-4-({[1-(2,2-difluoro-1,3-benzodioxol-5-yl)cyclopropyl]carbonyl}amino)-7-methoxy-3,4-dihydro-2H-chromen-2-yl]-3-fluorobenzoic acid], the “CYP3A4 Hepatocytes mRNA %” value in data set [1] turned out to be 11.6%. In data set [2], this molecule came in with an EC50 of 30 nM and an Emax of 129%. In addition, in data set [3], the EC50 is 4 nM and the Emax stood at 98%.
